Tested on: AOM/DSS-induced colorectal carcinoma mice
Assay: AOM/DSS-induced colorectal carcinoma mice
Assay type: in vivo, C57BL/6 mice
Settings: for colorectum weight/length (ratio): model group 4.34±0.35, normal 2.81±0.34
Protocol: 6-week-old SPF male C57BL/6 mice, purchased from the Chongqing Lepitt Biotechnology Co., Ltd. The mice were raised in a standardized laboratory with room temperature of 25° C.±2° C., relative humidity of 50%±5%, and 12 h of light/12 h of darkness. […] In experiments, mice were given free feeding and water. On the first day of experimental molding, the mice in the model group, the aspirin group, and the AKKP group were injected intraperitoneally with AOM at a dosage of 10 mg/kg, and were fed with 2.5% DSS aqueous solution at weeks 2, 5, and 8. The mice in the normal group and model group were intragastrically administrated with sterile saline; the mice in the aspirin group were intragastrically administrated with an aspirin solution at 67 mg/kg, and the mice in the AKKPL group and the AKKPH group were intragastrically administrated at dosages of 1×10^8 CFU/kg and 1×10^9 CFU/kg, respectively, for 10 consecutive weeks. In the experiments, diet, activity, vigor and hair conditions, and fecal properties of the mice in each group were observed. Each mouse was weighed per week and the body weights were recorded. After the experiments, blood was collected from eyeballs and the mice were sacrificed by removing their vertebrae. The mice were dissected to take out large intestine tissue, spleen tissue, liver tissue, and the kidney tissue for later testing.
After the mice were dissected, the large intestine tissue, the spleen tissue, the liver tissue, and the kidney tissue were taken out and weighed. An organ Index was calculated using a formula, while the colorectum length of the mouse was measured and the colorectal tumorigenesis number of the mouse was recorded. Organ index=organ weight (mg)/mouse body weight (g).
After being fixed in a tissue fixative for 24 h, the rectum of the mouse was transferred into 95% ethanol for dehydration, and then the dehydrated rectum was placed in xylene to replace alcohol in the tissue to make the rectum tissue transparent. Then, the treated rectum was embedded with paraffin. The embedded rectum was sectioned by a microtome, and then a tissue section was stained with H&E and fixed, obtaining a pathologic tissue section, with a thickness of 2 to 3 μm, of the rectum of the mouse, and the pathologic tissue section was observed under the upright microscope.
Whole blood was collected from the eyeballs, and centrifuged at 4000 r/min and 4° C. for 10 min to separate supernatant serum. According to the instruction of the ELISA kit, the levels of IL-1β, IL-6, IFN-γ, iNOS and NF-κB in the serum of the mouse were determined.
About 50 mg colon tissue was taken and cleaned with saline, and the cleaned colon tissue was placed in a homogenization tube containing 6 zirconia beads, and 500 μL TRIzol™ reagent was added to extract RNA in the tissue. The purity and concentration of RNA were determined using the micro-spectrophotometer. […] Then, after cDNA was generated by reverse transcription, a reaction system containing 1 μL cDNA was prepared. Other reagents include 10 μL qPCR SYBR Green Master Mix, […] sterile distilled water, 1 μL forward primer and 1 μL reverse primer. qRT-PCR amplification reaction conditions: 95° C., 10 s, 60° C., 30 s, 40 cycles; 95° C., 15 s, 60° C., 60 s, 95° C., 15 s. Taking Eef2 as an internal reference gene, the mRNA relative expression of each target gene was calculated according to formula 2^−ΔΔCt.

[1] = qRT-PCR, aspirin 67 mg/kg or AKKPH 1×10^9 CFU/kg, vs model group, P<0.05
[2] = qRT-PCR, vs model group, P<0.05

Akkermansia muciniphila [AKK PROBIO] was tested. Which “colorectum weight/length (ratio)” value (AKKPH 1×10^9 CFU/kg intragastric 10 weeks) did it give?
Its value is 2.97±0.18.

What about the “colorectum weight/length (ratio)” value (AKKPL 1×10^8 CFU/kg intragastric 10 weeks) of the same substance?
The value was 3.18±0.31.

And the body weight loss (AOM/DSS mice, intragastric 10 weeks, aspirin 67 mg/kg, AKKP 1×10^8 and 1×10^9 CFU/kg)?
Its body weight loss is “alleviate the body weight loss in the mice to a certain extent”.

And the “content of IL-6 in serum” value (ELISA, vs model group)?
Its value is “reduced”.

And the “content of IFN-γ in serum” value (ELISA, vs model group, P<0.05)?
The value was “reduced”.

What about the “content of IL-1β in serum” value (ELISA, vs model group, P<0.05) of the same substance?
Its value is “lower than that in the model group”.

What about the “content of NF-κB in serum” value (ELISA, vs model group, P<0.05) of the same substance?
Its value is “reduced”.

What about the “content of iNOS in serum” value (ELISA, vs model group, P<0.05) of the same substance?
The value was “reduced”.

What about the “pathological morphology of rectum tissue (H&E)” value (aspirin, AKKPL and AKKPH groups) of the same substance?
Its value is “no obvious erosion found in the rectal mucosa”.

And the “kidney index / renal tissue” value (between the five groups, P>0.05)?
The value was “no significant difference”.

And the “mRNA relative expression of IκBβ in colon tissue” value [1]?
The value was “significantly reduced”.

And the “mRNA relative expression of p50 in colon tissue” value [1]?
The value was “significantly reduced”.

And the “mRNA relative expression of Bid in colon tissue” value [2]?
The value was “significantly increased”.

What about the “mRNA relative expression of Bim in colon tissue” value [2] of the same substance?
The value was “significantly increased”.

What about the “mRNA relative expression of caspase-9 in colon tissue” value [2] of the same substance?
The value was “significantly increased”.

And the “mRNA relative expression of p52 in colon tissue” value [2]?
The value was “significantly reduced”.

And the “mRNA relative expression of p65 in colon tissue” value [2]?
Its value is “significantly reduced”.

And the colorectal tumorigenesis number (vs model group, P<0.05)?
The colorectal tumorigenesis number was “significantly smaller”.

And the “liver weight (liver index)” value (vs model group, P<0.05)?
Its value is “reduced”.

And the “spleen weight (spleen index)” value (vs model group, P<0.05)?
Its value is “reduced”.

And the colorectum length (vs model group, P<0.05, aspirin 67 mg/kg, AKKP 1×10^8 and 1×10^9 CFU/kg, 10 weeks)?
The colorectum length was “relatively long”.
